Test system: Sub-Populations of Crohn's Disease Patients
Assay: CD-LAQ-201 sub-populations of Crohn's disease patients (Example 2)
Assay type: in vivo, human
Description: This study was conducted according and with similar requirements as presented in Example 1. […] Patients, who have received anti-TNFαs in the past, tend to reflect a more severe, refractory segment of the Crohn's disease population. […] This sub-cohort analysis describes remission rates at week 8 for patients who were classified as having a predominantly inflammatory disease (based on the Montreal classifications) versus those that have a fibrostenotic or penetrating disease.

[1] = Laq 1.0 mg, Previous use of anti-TNFαs YES, week 8
[2] = Laq 1.5 mg, Fibrostenotic, week 8
[3] = Laq 1.5 mg, Inflammatory, week 8
[4] = Laq 1.5 mg, Oral steroids on Baseline NO
[5] = Laq 1.5 mg, Oral steroids on Baseline NO, week 8
[6] = Laq 1.5 mg, Oral steroids on Baseline YES
[7] = Laq 1.5 mg, Oral steroids on Baseline YES, week 8
[8] = Laq 1.5 mg, Previous Operations NO
[9] = Laq 1.5 mg, Previous Operations NO, week 8
[10] = Laq 1.5 mg, Previous Operations YES
[11] = Laq 1.5 mg, Previous Operations YES, week 8
[12] = Laq 1.5 mg, Previous use of anti-TNFαs NO
[13] = Laq 1.5 mg, Previous use of anti-TNFαs NO, week 8
[14] = Laq 1.5 mg, Previous use of anti-TNFαs YES
[15] = Laq 1.5 mg, Previous use of anti-TNFαs YES, week 8
[16] = Laq 2.0 mg, Fibrostenotic, week 8
[17] = Laq 2.0 mg, Inflammatory, week 8
[18] = Laq 2.0 mg, Oral steroids on Baseline NO
[19] = Laq 2.0 mg, Oral steroids on Baseline NO, week 8
[20] = Laq 2.0 mg, Oral steroids on Baseline YES
[21] = Laq 2.0 mg, Oral steroids on Baseline YES, week 8
[22] = Laq 2.0 mg, Previous Operations NO
[23] = Laq 2.0 mg, Previous Operations NO, week 8
[24] = Laq 2.0 mg, Previous Operations YES
[25] = Laq 2.0 mg, Previous Operations YES, week 8
[26] = Laq 2.0 mg, Previous use of anti-TNFαs NO
[27] = Laq 2.0 mg, Previous use of anti-TNFαs NO, week 8
[28] = Laq 2.0 mg, Previous use of anti-TNFαs YES
[29] = Laq 2.0 mg, Previous use of anti-TNFαs YES, week 8

CCN(C(=O)c1c(O)c2c(Cl)cccc2n(C)c1=O)c1ccccc1 [laquinimod]
Responders100 - N (%): N (Laq 1.0 mg, Previous use of anti-TNFαs YES): 5
Remission - N (%): % [1]: 16.7%
Remission - N (%): N [1]: 3
CDAI Change from Baseline - Mean ± SD (Laq 1.5 mg, Fibrostenotic): −51.8
Responders70 - N (%): % (Laq 1.5 mg, Fibrostenotic): 27.8%
Responders70 - N (%): N (Laq 1.5 mg, Fibrostenotic): 5
Responders100 - N (%): % (Laq 1.5 mg, Fibrostenotic): 27.8%
Responders100 - N (%): N (Laq 1.5 mg, Fibrostenotic): 5
Remission - N (%): % [2]: 11.1%
Remission - N (%): N [2]: 2
CDAI Change from Baseline - Mean ± SD (Laq 1.5 mg, Inflammatory): −43.8
Responders70 - N (%): % (Laq 1.5 mg, Inflammatory): 36.4%
Responders70 - N (%): N (Laq 1.5 mg, Inflammatory): 4
Responders100 - N (%): % (Laq 1.5 mg, Inflammatory): 27.3%
Responders100 - N (%): N (Laq 1.5 mg, Inflammatory): 3
Remission - N (%): % [3]: 18.2%
Remission - N (%): N [3]: 2
CDAI Change from Baseline - Mean ± SD [4]: −46.8
Responders70 - N (%): % [4]: 25.0%
Responders70 - N (%): N [4]: 5
Responders100 - N (%): % [4]: 20.0%
Responders100 - N (%): N [4]: 4
Remission - N (%): % [5]: 10.0%
Remission - N (%): N [5]: 2
CDAI Change from Baseline - Mean ± SD [6]: −52.6
Responders70 - N (%): % [6]: 44.4%
Responders70 - N (%): N [6]: 4
Responders100 - N (%): % [6]: 44.4%
Responders100 - N (%): N [6]: 4
Remission - N (%): % [7]: 22.2%
Remission - N (%): N [7]: 2
CDAI Change from Baseline - Mean ± SD [8]: −68.3
Responders70 - N (%): % [8]: 43.8%
Responders70 - N (%): N [8]: 7
Responders100 - N (%): % [8]: 37.5%
Responders100 - N (%): N [8]: 6
Remission - N (%): % [9]: 25.0%
Remission - N (%): N [9]: 4
CDAI Change from Baseline - Mean ± SD [10]: −26.0
Responders70 - N (%): % [10]: 15.4%
Responders70 - N (%): N [10]: 2
Responders100 - N (%): % [10]: 15.4%
Responders100 - N (%): N [10]: 2
Remission - N (%): % [11]: 0.0%
Remission - N (%): N [11]: 0
CDAI Change from Baseline - Mean ± SD [12]: −95.5
Responders70 - N (%): % [12]: 54.5%
Responders70 - N (%): N [12]: 6
Responders100 - N (%): % [12]: 45.5%
Responders100 - N (%): N [12]: 5
Remission - N (%): % [13]: 27.3%
Remission - N (%): N [13]: 3
CDAI Change from Baseline - Mean ± SD [14]: −18.4
Responders70 - N (%): % [14]: 16.7%
Responders70 - N (%): N [14]: 3
Responders100 - N (%): % [14]: 16.7%
Responders100 - N (%): N [14]: 3
Remission - N (%): % [15]: 5.6%
Remission - N (%): N [15]: 1
CDAI Change from Baseline - Mean ± SD (Laq 2.0 mg, Fibrostenotic): −40.7
Responders70 - N (%): % (Laq 2.0 mg, Fibrostenotic): 22.2%
Responders70 - N (%): N (Laq 2.0 mg, Fibrostenotic): 4
Responders100 - N (%): % (Laq 2.0 mg, Fibrostenotic): 22.2%
Responders100 - N (%): N (Laq 2.0 mg, Fibrostenotic): 4
Remission - N (%): % [16]: 16.7%
Remission - N (%): N [16]: 3
CDAI Change from Baseline - Mean ± SD (Laq 2.0 mg, Inflammatory): −33.1
Responders70 - N (%): % (Laq 2.0 mg, Inflammatory): 36.4%
Responders70 - N (%): N (Laq 2.0 mg, Inflammatory): 4
Responders100 - N (%): % (Laq 2.0 mg, Inflammatory): 36.4%
Responders100 - N (%): N (Laq 2.0 mg, Inflammatory): 4
Remission - N (%): % [17]: 18.2%
Remission - N (%): N [17]: 2
CDAI Change from Baseline - Mean ± SD [18]: −39.7
Responders70 - N (%): % [18]: 29.2%
Responders70 - N (%): N [18]: 7
Responders100 - N (%): % [18]: 29.2%
Responders100 - N (%): N [18]: 7
Remission - N (%): % [19]: 16.7%
Remission - N (%): N [19]: 4
CDAI Change from Baseline - Mean ± SD [20]: −20.3
Responders70 - N (%): % [20]: 20.0%
Responders70 - N (%): N [20]: 1
Responders100 - N (%): % [20]: 20.0%
Responders100 - N (%): N [20]: 1
Remission - N (%): % [21]: 20.0%
Remission - N (%): N [21]: 1
CDAI Change from Baseline - Mean ± SD [22]: −54.6
Responders70 - N (%): % [22]: 37.5%
Responders70 - N (%): N [22]: 6
Responders100 - N (%): % [22]: 37.5%
Responders100 - N (%): N [22]: 6
Remission - N (%): % [23]: 18.8%
Remission - N (%): N [23]: 3
CDAI Change from Baseline - Mean ± SD [24]: −14.2
Responders70 - N (%): % [24]: 15.4%
Responders70 - N (%): N [24]: 2
Responders100 - N (%): % [24]: 15.4%
Responders100 - N (%): N [24]: 2
Remission - N (%): % [25]: 15.4%
Remission - N (%): N [25]: 2
CDAI Change from Baseline - Mean ± SD [26]: −56.4
Responders70 - N (%): % [26]: 55.6%
Responders70 - N (%): N [26]: 10
Responders100 - N (%): % [26]: 33.3%
Responders100 - N (%): N [26]: 6
Remission - N (%): % [27]: 27.8%
Remission - N (%): N [27]: 5
CDAI Change from Baseline - Mean ± SD [28]: −102.2
Responders70 - N (%): % [28]: 50.0%
Responders70 - N (%): N [28]: 6
Responders100 - N (%): % [28]: 50.0%
Responders100 - N (%): N [28]: 6
Remission - N (%): % [29]: 25.0%
Remission - N (%): N [29]: 3
effect of oral steroids together with laquinimod on remission at week 8 (laquinimod 0.5 mg): potential synergistic effect
effect on remission at week 8 with or without previous operations (laquinimod 0.5 mg): had an effect over placebo in both sub-populations
remission in predominantly inflammatory disease vs the complementary cohort (laquinimod 0.5 mg and 1 mg, week 8): may work better

Reference: patent publication US9161935B2 (TEVA PHARMACEUTICAL INDUSTRIES, LTD., priority 2012, dated 2015)
